How the values were obtained:
CD73 [1] = target: T1, CD73 (Homo sapiens (Human), UniProt P21589); assay: MDA-MB-231 Cell Based CD73 Activity Assay (DMEM); conditions: MDA-MB-231-GFP cells, DMEM medium with 10% human plasma, 200 uM AMP
CD73 [2] = target: T1, CD73; format: biochemical; conditions: 1 mM NaH2PO4 in enzyme buffer, CD73 0.3 nM, AMP 15 uM

T1 sequence (P21589 27-574): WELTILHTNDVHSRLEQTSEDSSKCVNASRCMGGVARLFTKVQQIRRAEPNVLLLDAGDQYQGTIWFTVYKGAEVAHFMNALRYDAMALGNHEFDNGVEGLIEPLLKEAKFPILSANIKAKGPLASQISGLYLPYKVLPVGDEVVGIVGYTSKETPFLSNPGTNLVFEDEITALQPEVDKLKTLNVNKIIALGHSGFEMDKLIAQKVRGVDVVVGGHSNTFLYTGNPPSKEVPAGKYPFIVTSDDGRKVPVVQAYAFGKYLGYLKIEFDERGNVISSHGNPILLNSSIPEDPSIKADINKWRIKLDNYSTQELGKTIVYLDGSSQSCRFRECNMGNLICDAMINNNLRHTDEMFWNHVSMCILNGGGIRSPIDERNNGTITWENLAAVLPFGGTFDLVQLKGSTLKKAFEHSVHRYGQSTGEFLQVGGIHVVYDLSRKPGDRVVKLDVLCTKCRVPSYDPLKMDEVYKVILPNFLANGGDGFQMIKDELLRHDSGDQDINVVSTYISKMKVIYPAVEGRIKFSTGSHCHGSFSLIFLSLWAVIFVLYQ

| EC50 (CD73 [1]) [nM] | IC50 (CD73 [2]) [nM] | SMILES |
| --- | --- | --- |
| 0.46 | 1.13 | O=c1[nH]cc(-c2cc([C@H]3C[C@@H]3c3ccc4ccn(CC(F)(F)F)c4n3)c3nccn3n2)c(=O)[nH]1 [Example 126, 5-(8-((1S,2S)-2-(1-(2,2,2-trifluoroethyl)-1H-pyrrolo[2,3-b]pyridin-6-yl)cyclopropyl)imidazo[1,2-b]pyridazin-6-yl)pyrimidine-2,4(1H,3H)-dione] |
| 6.1 | 0.78 | O=c1[nH]cc(-c2cc([C@H]3C[C@@H]3c3ccc4nc(C(F)(F)F)ccc4c3)c3nccn3n2)c(=O)[nH]1 [Example 131, 5-(8-((1S,2S)-2-(2-(trifluoromethyl)quinolin-6-yl)cyclopropyl)imidazo[1,2-b]pyridazin-6-yl)pyrimidine-2,4(1H,3H)-dione] |
| 1.6 | 0.92 | O=c1[nH]cc(-c2cc([C@H]3C[C@@H]3c3ccc4cnc(C(F)(F)F)cc4c3)c3nccn3n2)c(=O)[nH]1 [Example 133, 5-(8-((1S,2S)-2-(3-(trifluoromethyl)isoquinolin-6-yl)cyclopropyl)imidazo[1,2-b]pyridazin-6-yl)pyrimidine-2,4(1H,3H)-dione] |
| 44 | 1.99 | O=c1[nH]cc(-c2cc([C@H]3C[C@@H]3c3cc(C(F)(F)F)c4ncccc4c3)c3nccn3n2)c(=O)[nH]1 [Example 135, 5-(8-((1S,2S)-2-(8-(trifluoromethyl)quinolin-6-yl)cyclopropyl)imidazo[1,2-b]pyridazin-6-yl)pyrimidine-2,4(1H,3H)-dione] |
| 296 | 4.55 | O=c1[nH]cc(-c2cc([C@H]3C[C@@H]3c3ccc4c(C(F)(F)F)ccnc4c3)c3nccn3n2)c(=O)[nH]1 [Example 139, 5-(8-((1S,2S)-2-(4-(trifluoromethyl)quinolin-7-yl)cyclopropyl)imidazo[1,2-b]pyridazin-6-yl)pyrimidine-2,4(1H,3H)-dione] |
| 41.7 | 20.5 | CC1(C)CN(c2cc(-c3c[nH]c(=O)[nH]c3=O)nn3cc(C4CC4)nc23)CC1(F)F [Example 145, 5-(2-cyclopropyl-8-(3,3-difluoro-4,4-dimethylpyrrolidin-1-yl)imidazo[1,2-b]pyridazin-6-yl)pyrimidine-2,4(1H,3H)-dione] |
| 17.9 | 8 | O=c1[nH]cc(-c2cc(N3CC(F)C4(CC4)C3)c3ncc(F)n3n2)c(=O)[nH]1 (stereo not shown) [Example 148, 5-(3-fluoro-8-(7-fluoro-5-azaspiro[2.4]heptan-5-yl)imidazo[1,2-b]pyridazin-6-yl)pyrimidine-2,4(1H,3H)-dione] |
| 4.79 | 1.93 | O=c1[nH]cc(-c2cc([C@H]3C[C@@H]3c3ccc(C(F)(F)F)cn3)c3nccn3n2)c(=O)[nH]1 [Example 150, 5-(8-((1S,2S)-2-(5-(trifluoromethyl)pyridin-2-yl)cyclopropyl)imidazo[1,2-b]pyridazin-6-yl)pyrimidine-2,4(1H,3H)-dione] |
| 8.85 | 2.3 | O=c1[nH]cc(-c2cc([C@H]3C[C@@H]3c3ccc(C(F)(F)F)nc3)c3nccn3n2)c(=O)[nH]1 [Example 153, 5-(8-((1S,2S)-2-(6-(trifluoromethyl)pyridin-3-yl)cyclopropyl)imidazo[1,2-b]pyridazin-6-yl)pyrimidine-2,4(1H,3H)-dione] |
| 4.41 | 1.64 | O=c1[nH]cc(-c2cc([C@H]3C[C@@H]3c3cccnc3)c3nccn3n2)c(=O)[nH]1 [Example 162, 5-(8-((1S,2S)-2-(pyridin-3-yl)cyclopropyl)imidazo[1,2-b]pyridazin-6-yl)pyrimidine-2,4(1H,3H)-dione] |
| 189 | 73.9 | O=c1[nH]cc(-c2cc(N3CCC(F)(C(F)(F)F)C3)c3nccn3n2)c(=O)[nH]1 (stereo not shown) [Example 169, 5-(8-(3-fluoro-3-(trifluoromethyl)pyrrolidin-1-yl)imidazo[1,2-b]pyridazin-6-yl)pyrimidine-2,4(1H,3H)-dione] |
| 136 | 35.4 | O=c1[nH]cc(-c2cc(N3CC(C(F)F)C4(CC4)C3)c3nccn3n2)c(=O)[nH]1 (stereo not shown) [Example 170, 5-(8-(7-(difluoromethyl)-5-azaspiro[2.4]heptan-5-yl)imidazo[1,2-b]pyridazin-6-yl)pyrimidine-2,4(1H,3H)-dione] |
| 14.1 | 3.17 | O=c1[nH]cc(-c2cc(N3CC(F)C4(CC4)C3)c3nccn3n2)c(=O)[nH]1 (stereo not shown) [Example 171, 5-(8-(7-fluoro-5-azaspiro[2.4]heptan-5-yl)imidazo[1,2-b]pyridazin-6-yl)pyrimidine-2,4(1H,3H)-dione] |
| 88.2 | 3.59 | COc1ccc(C2CCN(c3cc(-c4c[nH]c(=O)[nH]c4=O)nn4ccnc34)C2)cc1 (stereo not shown) [Example 173, 5-(8-(3-(4-methoxyphenyl)pyrrolidin-1-yl)imidazo[1,2-b]pyridazin-6-yl)pyrimidine-2,4(1H,3H)-dione] |
| 214 | 69 | CC(C)[C@@H]1CCN(c2cc(-c3c[nH]c(=O)[nH]c3=O)nn3ccnc23)C1 [Example 174, (S)-5-(8-(3-isopropylpyrrolidin-1-yl)imidazo[1,2-b]pyridazin-6-yl)pyrimidine-2,4(1H,3H)-dione] |
| 23.1 | 3.6 | O=c1[nH]cc(-c2cc(N3CC[C@@H](C(F)(F)F)C3)c3nccn3n2)c(=O)[nH]1 [Example 175, (R)-5-(8-(3-(trifluoromethyl)pyrrolidin-1-yl)imidazo[1,2-b]pyridazin-6-yl)pyrimidine-2,4(1H,3H)-dione] |
| 59.5 | 11 | O=c1[nH]cc(-c2cc(N3CCC(F)(F)C3)c3ncc(F)n3n2)c(=O)[nH]1 [Example 176, 5-(8-(3,3-difluoropyrrolidin-1-yl)-3-fluoroimidazo[1,2-b]pyridazin-6-yl)pyrimidine-2,4(1H,3H)-dione] |

More lines, now with the values behind:

| SMILES | EC50 (CD73 [1]) [nM] | IC50 (CD73 [2]) [nM] |
| --- | --- | --- |
| O=c1[nH]cc(-c2cc([C@@H]3C[C@H]3c3ccc4cnn(CC(F)F)c4c3)c3nccn3n2)c(=O)[nH]1 [Example 124, 5-(8-((1R,2R)-2-(1-(2,2-difluoroethyl)-1H-indazol-6-yl)cyclopropyl)imidazo[1,2-b]pyridazin-6-yl)pyrimidine-2,4(1H,3H)-dione] | 0.62 | 2.6 |
| O=c1[nH]cc(-c2cc([C@H]3C[C@@H]3c3ccc4cnn(CC(F)F)c4c3)c3nccn3n2)c(=O)[nH]1 [Example 125, 5-(8-((1S,2S)-2-(1-(2,2-difluoroethyl)-1H-indazol-6-yl)cyclopropyl)imidazo[1,2-b]pyridazin-6-yl)pyrimidine-2,4(1H,3H)-dione] | 0.17 | 0.71 |
| O=c1[nH]cc(-c2cc([C@H]3C[C@@H]3c3ccc4cnn(CC(F)F)c4c3F)c3nccn3n2)c(=O)[nH]1 [Example 129, 5-(8-((1S,2S)-2-(1-(2,2-difluoroethyl)-7-fluoro-1H-indazol-6-yl)cyclopropyl)imidazo[1,2-b]pyridazin-6-yl)pyrimidine-2,4(1H,3H)-dione] | 0.3 | 1.11 |
| O=c1[nH]cc(-c2cc([C@H]3C[C@@H]3c3ccc(OC(F)F)cn3)c3ncc(F)n3n2)c(=O)[nH]1 [Example 132, 5-(8-((1S,2S)-2-(5-(difluoromethoxy)pyridin-2-yl)cyclopropyl)-3-fluoroimidazo[1,2-b]pyridazin-6-yl)pyrimidine-2,4(1H,3H)-dione] | 19.4 | 1.21 |
| O=c1[nH]cc(-c2cc([C@H]3C[C@@H]3c3cc(C(F)(F)F)c4ncccc4c3)c3ncc(F)n3n2)c(=O)[nH]1 [Example 134, 5-(3-fluoro-8-((1S,2S)-2-(8-(trifluoromethyl)quinolin-6-yl)cyclopropyl)imidazo[1,2-b]pyridazin-6-yl)pyrimidine-2,4(1H,3H)-dione] | 22.7 | 1.17 |
| O=c1[nH]cc(-c2cc([C@H]3C[C@@H]3c3ccc(OC(F)F)cn3)c3nccn3n2)c(=O)[nH]1 [Example 137, 5-(8-((1S,2S)-2-(5-(difluoromethoxy)pyridin-2-yl)cyclopropyl)imidazo[1,2-b]pyridazin-6-yl)pyrimidine-2,4(1H,3H)-dione] | 4.68 | 1.28 |
| O=c1[nH]cc(-c2cc([C@H]3C[C@@H]3c3ccc(OC(F)F)nc3)c3nccn3n2)c(=O)[nH]1 [Example 140, 5-(8-((1S,2S)-2-(6-(difluoromethoxy)pyridin-3-yl)cyclopropyl)imidazo[1,2-b]pyridazin-6-yl)pyrimidine-2,4(1H,3H)-dione] | 5.25 | 1.68 |
| O=c1[nH]cc(-c2cc([C@H]3C[C@@H]3c3ccc(C(F)(F)F)cn3)c3ncc(F)n3n2)c(=O)[nH]1 [Example 144, 5-(3-fluoro-8-((1S,2S)-2-(5-(trifluoromethyl)pyridin-2-yl)cyclopropyl)imidazo[1,2-b]pyridazin-6-yl)pyrimidine-2,4(1H,3H)-dione] | 6.17 | 2.3 |
| O=c1[nH]cc(-c2cc([C@H]3C[C@@H]3c3ccc(F)cc3F)c3nc(C4CC4)cn3n2)c(=O)[nH]1 [Example 146, 5-(2-cyclopropyl-8-((1S,2S)-2-(2,4-difluorophenyl)cyclopropyl)imidazo[1,2-b]pyridazin-6-yl)pyrimidine-2,4(1H,3H)-dione] | 46.7 | 6.12 |
| O=c1[nH]cc(-c2cc(N3CC(F)C4(CC4)C3)n3nccc3n2)c(=O)[nH]1 (stereo not shown) [Example 147, 5-(7-(7-fluoro-5-azaspiro[2.4]heptan-5-yl)pyrazolo[1,5-a]pyrimidin-5-yl)pyrimidine-2,4(1H,3H)-dione] | 96.1 | 39 |
| N#Cc1ccc([C@H]2C[C@@H]2c2cc(-c3c[nH]c(=O)[nH]c3=O)nn3c(F)cnc23)cc1 [Example 158, 4-((1S,2S)-2-(6-(2,4-dioxo-1,2,3,4-tetrahydropyrimidin-5-yl)-3-fluoroimidazo[1,2-b]pyridazin-8-yl)cyclopropyl)benzonitrile] | 2.52 | 0.55 |
| O=c1[nH]cc(-c2cc([C@H]3C[C@@H]3c3ccccn3)c3nccn3n2)c(=O)[nH]1 [Example 159, 5-(8-((1S,2S)-2-(pyridin-2-yl)cyclopropyl)imidazo[1,2-b]pyridazin-6-yl)pyrimidine-2,4(1H,3H)-dione] | 2.62 | 1.76 |

Source: patent publication US20240043427A1 (Gilead Sciences, Inc., priority 2020, published 2024)
